Measured values reported in US9187472B2 (AbbVie Inc., priority 2012, dated 2015).
pIC50: −log10 of the molar value.

Experiments:
[1] = target: NAMPT (human, recombinant, C-terminally His-tagged) (Homo sapiens, UniProt P43490); experiment: Time-Resolved Fluorescence Resonance Energy Transfer (TR-FRET) Binding Assay of NAMPT; details: without substrates; 6.8 nM NAMPT, 200 nM probe, 3 hours equilibration
Summary of the method: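 Read-out is the time-resolved FRET ratio Em520/Em495 (excitation 337 nm) between a terbium anti-His antibody (1 nM) on the enzyme and an Oregon Green 488-labelled nicotinamide-competitive inhibitor probe (200 nM). Enzyme was 6.8 nM, DMSO 2%, pH 7.5 HEPES buffer; 3 h room-temperature equilibration preceded reading.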

[2] = target: NAMPT (Homo sapiens, UniProt P43490); experiment: TR-FRET Binding Assay of NAMPT with PRPP; details: with 200 μM PRPP and 2.5 mM ATP; 2 nM NAMPT, 2 nM probe, 16 hours equilibration
Chain of NAMPT (P43490 whole entry): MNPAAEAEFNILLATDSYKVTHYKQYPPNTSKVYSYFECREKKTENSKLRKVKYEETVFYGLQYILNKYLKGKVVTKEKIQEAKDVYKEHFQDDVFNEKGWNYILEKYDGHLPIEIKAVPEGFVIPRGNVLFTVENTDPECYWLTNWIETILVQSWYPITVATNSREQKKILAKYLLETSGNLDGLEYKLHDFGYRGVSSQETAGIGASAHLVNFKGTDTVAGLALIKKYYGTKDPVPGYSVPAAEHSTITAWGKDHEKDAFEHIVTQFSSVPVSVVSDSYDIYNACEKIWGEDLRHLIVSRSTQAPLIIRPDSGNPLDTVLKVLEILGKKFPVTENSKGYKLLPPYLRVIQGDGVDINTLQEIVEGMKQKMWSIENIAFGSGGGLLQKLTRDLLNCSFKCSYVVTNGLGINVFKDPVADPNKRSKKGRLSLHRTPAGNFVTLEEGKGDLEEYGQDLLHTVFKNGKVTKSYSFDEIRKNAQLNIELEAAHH
Summary of the method: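 NAMPT 2 nM + probe 2 nM + Tb-anti-His Ab 1 nM; PRPP 200 μM, ATP 2.5 mM, DMSO 2%; 16 h equilibration before TR-FRET read.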

[3] = test system: PC3 cells; experiment: NAMPT Cell Proliferation Assay; assay type: cell-based; details: Homo sapiens, PC-3, 120 h, 5 days incubation, cell viability by Cell Titer Glo
Summary of the method: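 Seed PC3 at 500 cells/well (RPMI, 10% HI-FBS), attach overnight; add compound, 10-fold series 10 μM → 1×10^−5 μM; incubate 5 d, 37° C/5% CO2; luminescent viability readout; fit % inhibition sigmoidally for IC50.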

Chain of NAMPT (human, recombinant, C-terminally His-tagged) (P43490 whole entry): as above

SMILES	pIC50 [1]	pIC50 [2]	pIC50 [3]
O=C(NCc1ccc2nccn2c1)c1cnc(N2CCC(c3ccccc3)C2)s1 (stereo not drawn) [Example 86, N-(imidazo[1,2-a]pyridin-6-ylmethyl)-2-(3-phenylpyrrolidin-1-yl)-1,3-thiazole-5-carboxamide]	5.69	7.92	5.24
CC(C)CCNc1ncc(C(=O)NCc2ccc3nccn3c2)s1 [Example 87, N-(imidazo[1,2-a]pyridin-6-ylmethyl)-2-[(3-methylbutyl)amino]-1,3-thiazole-5-carboxamide]	5.69	8.87	5.18
O=C(NCc1ccc2nccn2c1)c1cnc(N2Cc3ccccc3C2)s1 [Example 88, 2-(1,3-dihydro-2H-isoindol-2-yl)-N-(imidazo[1,2-a]pyridin-6-ylmethyl)-1,3-thiazole-5-carboxamide]	5.55	8.07	5.09
CC(C)(C)OC(=O)N1CCC(c2ccc(NC(=O)Nc3ccc4nccn4c3)cc2)CC1 [Example 89, tert-butyl 4-{4-[(imidazo[1,2-a]pyridin-6-ylcarbamoyl)amino]phenyl}piperidine-1-carboxylate]	6.18	9.42	6.95
CC(C)C(=O)N1CC=C(c2ccc(C(=O)NCc3ccc4nccn4c3)cc2)CC1 [Example 90, N-(imidazo[1,2-a]pyridin-6-ylmethyl)-4-[1-(2-methylpropanoyl)-1,2,3,6-tetrahydropyridin-4-yl]benzamide]	6.69	9.20	7.73
CC(C)(O)C(=O)N1CC=C(c2ccc(C(=O)NCc3ccc4nccn4c3)cc2)CC1 [Example 91, 4-[1-(2-hydroxy-2-methylpropanoyl)-1,2,3,6-tetrahydropyridin-4-yl]-N-(imidazo[1,2-a]pyridin-6-ylmethyl)benzamide]	6.76	8.90	7.86
O=C(NCc1ccc2nccn2c1)c1ccc(C2=CCN(C(=O)CN3CCOCC3)CC2)cc1 [Example 92, N-(imidazo[1,2-a]pyridin-6-ylmethyl)-4-[1-(morpholin-4-ylacetyl)-1,2,3,6-tetrahydropyridin-4-yl]benzamide]	6.74	9.06	8.02
O=C(NCc1ccc2nccn2c1)c1ccc(C2=CCN(C(=O)CC3CCOCC3)CC2)cc1 [Example 93, N-(imidazo[1,2-a]pyridin-6-ylmethyl)-4-[1-(tetrahydro-2H-pyran-4-ylacetyl)-1,2,3,6-tetrahydropyridin-4-yl]benzamide]	6.41	8.86	8.15
O=C(NCc1ccc2nccn2c1)c1ccc(C2=CCN(C(=O)CC3CCOC3)CC2)cc1 (stereo not drawn) [Example 94, N-(imidazo[1,2-a]pyridin-6-ylmethyl)-4-[1-(tetrahydrofuran-3-ylacetyl)-1,2,3,6-tetrahydropyridin-4-yl]benzamide]	6.54	9.23	7.85
O=C(NCc1ccc2nccn2c1)c1ccc(C2=CCN(C(=O)CC3CCCO3)CC2)cc1 (stereo not drawn) [Example 95, N-(imidazo[1,2-a]pyridin-6-ylmethyl)-4-[1-(tetrahydrofuran-2-ylacetyl)-1,2,3,6-tetrahydropyridin-4-yl]benzamide]	6.70	9.00	7.97
O=C(NCc1ccc2nccn2c1)c1ccc(C2=CCN(C(=O)CCC3CCCO3)CC2)cc1 (stereo not drawn) [Example 96, N-(imidazo[1,2-a]pyridin-6-ylmethyl)-4-{1-[3-(tetrahydrofuran-2-yl)propanoyl]-1,2,3,6-tetrahydropyridin-4-yl}benzamide]	6.72	8.81	8.02
O=C(NCc1ccc2nccn2c1)c1ccc(C2=CCN(C(=O)CC3CCCC3)CC2)cc1 [Example 97, 4-[1-(cyclopentylacetyl)-1,2,3,6-tetrahydropyridin-4-yl]-N-(imidazo[1,2-a]pyridin-6-ylmethyl)benzamide]	6.96	9.48	8.34
CC(C)OCC(=O)N1CC=C(c2ccc(C(=O)NCc3ccc4nccn4c3)cc2)CC1 [Example 98, N-(imidazo[1,2-a]pyridin-6-ylmethyl)-4-{1-[(propan-2-yloxy)acetyl]-1,2,3,6-tetrahydropyridin-4-yl}benzamide]	6.92	9.44	7.71
O=C(NCc1ccc2nccn2c1)c1ccc(C2=CCN(C(=O)C3CCCO3)CC2)cc1 (stereo not drawn) [Example 99, N-(imidazo[1,2-a]pyridin-6-ylmethyl)-4-[1-(tetrahydrofuran-2-ylcarbonyl)-1,2,3,6-tetrahydropyridin-4-yl]benzamide]	6.92	9.39	7.58
O=C(NCc1ccc2nccn2c1)c1ccc(C2=CCN(C(=O)C3CCOC3)CC2)cc1 (stereo not drawn) [Example 100, N-(imidazo[1,2-a]pyridin-6-ylmethyl)-4-[1-(tetrahydrofuran-3-ylcarbonyl)-1,2,3,6-tetrahydropyridin-4-yl]benzamide]	6.99	9.77	7.79
O=C(NCc1ccc2nccn2c1)c1ccc(C2=CCN(C(=O)C3CCOCC3)CC2)cc1 [Example 101, N-(imidazo[1,2-a]pyridin-6-ylmethyl)-4-[1-(tetrahydro-2H-pyran-4-ylcarbonyl)-1,2,3,6-tetrahydropyridin-4-yl]benzamide]	6.48	8.76	8.61
O=C(NCc1ccc2nccn2c1)c1ccc(C2=CCN(C(=O)C3COCCO3)CC2)cc1 (stereo not drawn) [Example 102, 4-[1-(1,4-dioxan-2-ylcarbonyl)-1,2,3,6-tetrahydropyridin-4-yl]-N-(imidazo[1,2-a]pyridin-6-ylmethyl)benzamide]	6.41	8.92	7.89
COCCOCC(=O)N1CC=C(c2ccc(C(=O)NCc3ccc4nccn4c3)cc2)CC1 [Example 103, N-(imidazo[1,2-a]pyridin-6-ylmethyl)-4-{1-[(2-methoxyethoxy)acetyl]-1,2,3,6-tetrahydropyridin-4-yl}benzamide]	6.08	8.84	7.21
O=C(NCc1ccc2nccn2c1)c1ccc(C2=CCN(C(=O)c3ccccc3)CC2)cc1 [Example 104, 4-(1-benzoyl-1,2,3,6-tetrahydropyridin-4-yl)-N-(imidazo[1,2-a]pyridin-6-ylmethyl)benzamide]	6.87	8.70	8.07
O=C(NCc1ccc2nccn2c1)c1ccc(C2=CCN(C(=O)C3CCC(F)(F)CC3)CC2)cc1 [Example 105, 4-{1-[(4,4-difluorocyclohexyl)carbonyl]-1,2,3,6-tetrahydropyridin-4-yl}-N-(imidazo[1,2-a]pyridin-6-ylmethyl)benzamide]	6.97	9.32	8.18
CC(C)C(=O)N1CCC(c2ccc(NC(=O)Nc3ccc4nccn4c3)cc2)CC1 [Example 106, 1-imidazo[1,2-a]pyridin-6-yl-3-{4-[1-(2-methylpropanoyl)piperidin-4-yl]phenyl}urea]	6.61	9.70	7.10
O=C(NCCCCC1CCN(C(=O)c2ccccc2)CC1)Nc1ccc2nccn2c1 [Example 107, 1-[4-(1-benzoylpiperidin-4-yl)butyl]-3-imidazo[1,2-a]pyridin-6-ylurea]	7.35	9.31	7.97
